Source: patent publication US20040253189A1, “Breath Freshening and Oral Cleansing Product Using Geraniol” (priority 2002, published 2004)
In brackets after ≈: the same amount, converted by molar mass.

Legend:
Type in all cases: cell-based
Porphyromonas gingivalis [1] = assay: MIC (minimum inhibitory concentration) study, 96 well microtiter plates; conditions: P. gingivalis, 48 hours at 37° C., turbidity at 660 nm
Description: (§1) In vitro tests were conducted with a gram positive supragingival plaque bacterium, Streptococcus mutans. In addition, two subgingival plaque bacteria associated with oral malodor were tested, Porphyromonas gingivalis and Fusobacterium nucleatum. The MIC (Minimum Inhibitory Concentrations) study protocol is as follows. Chlorhexidine was used as a positive control and sterile water was used as a negative control. Geraniol was suspended in 10% methanol with 3.8% Tween 80. […] 96 well microtiter plates were used for this study. Each well contained 5×10^5 colony forming units/ml of bacteria, serially diluted agents and bacterial growth medium. All bacterial cultures were incubated at 37° C. and stationary. Bacterial growth was estimated spectrophotometrically at 660 nm, after 48 hours. The MIC for each test bacteria was defined as the minimum concentration of test compound limiting turbidity to <absorbance at 660 nm.

Fusobacterium nucleatum [2] = assay: as above; conditions: F. nucleatum, 48 hours at 37° C., turbidity at 660 nm
Description: as §1

Streptococcus mutans [3] = assay: as above; conditions: S. mutans, 48 hours at 37° C., turbidity at 660 nm
Description: as §1

Porphyromonas gingivalis [4] = assay: MBC (minimum bactericidal concentration) determination, plating on blood agar; conditions: P. gingivalis, lowest concentration that killed at least 99.9% of initial inoculum
Description: as §1, with “[…]. The MBC (Minimum bactericidal concentrations) were determined using the 96 well microtiter plate serial dilutions as described above for MIC studies. Serial dilution of cultures in wells showing no visible growth were performed and 10 microliters of culture were plated in triplicate on blood agar plates. Viable colonies were scored after incubation of the plates for 48 hours at 37° C. For each test bacterium, the number of CFU/ml were determined in the initial inoculum. The MBC was defined as the lowest concentration of a test compound that killed at least 99.9% of the cells present in the initial inoculum.” for “nm.”

Fusobacterium nucleatum [5] = assay: as above; conditions: F. nucleatum, lowest concentration that killed at least 99.9% of initial inoculum
Description: as §1, with “[…]. The MBC (Minimum bactericidal concentrations) were determined using the 96 well microtiter plate serial dilutions as described above for MIC studies. Serial dilution of cultures in wells showing no visible growth were performed and 10 microliters of culture were plated in triplicate on blood agar plates. Viable colonies were scored after incubation of the plates for 48 hours at 37° C. For each test bacterium, the number of CFU/ml were determined in the initial inoculum. The MBC was defined as the lowest concentration of a test compound that killed at least 99.9% of the cells present in the initial inoculum.” for “nm.”

Streptococcus mutans [6] = assay: as above; conditions: S. mutans, lowest concentration that killed at least 99.9% of initial inoculum
Description: as §1, with “[…]. The MBC (Minimum bactericidal concentrations) were determined using the 96 well microtiter plate serial dilutions as described above for MIC studies. Serial dilution of cultures in wells showing no visible growth were performed and 10 microliters of culture were plated in triplicate on blood agar plates. Viable colonies were scored after incubation of the plates for 48 hours at 37° C. For each test bacterium, the number of CFU/ml were determined in the initial inoculum. The MBC was defined as the lowest concentration of a test compound that killed at least 99.9% of the cells present in the initial inoculum.” for “nm.”

SMILES | MIC (Porphyromonas gingivalis [1]) [µg/mL] | MIC (Fusobacterium nucleatum [2]) [µg/mL] | MIC (Streptococcus mutans [3]) [µg/mL] | MBC (Porphyromonas gingivalis [4]) [µg/mL] | MBC (Fusobacterium nucleatum [5]) [µg/mL] | MBC (Streptococcus mutans [6]) [µg/mL]
CC(C)=CCC/C(C)=C/CO [geraniol] | 125 (≈ 810 µM) | 125 (≈ 810 µM) | 500 (≈ 3240 µM) | 125 (≈ 810 µM) | 125 (≈ 810 µM) | 250 (≈ 1620 µM)
[H]/N=C(\N/C(=N/[H])NCCCCCCNC(=N)NC(=N)Nc1ccc(Cl)cc1)Nc1ccc(Cl)cc1 [Cholorhexidine, Chlorhexidine, reference compound] | 1.25 (≈ 2.47 µM) | 1.25 (≈ 2.47 µM) | – | 1.25 (≈ 2.47 µM) | 1.25 (≈ 2.47 µM) | –
